DBAASP
Converted amounts (≈) assume the structure as drawn.

Tests used:
Test in all cases: ≥ marks a high value that may be exact or a test limit, other limits are often not marked, values filed in µg/mL are converted to µM
[1] = system: Candida albicans ATCC 90028
[2] = system: Enterobacter cloacae HNTCC 53001
[3] = system: Enterococcus faecalis ATCC 29212
[4] = system: Escherichia coli ATCC 25922
[5] = system: Klebsiella pneumoniae KK3 9904
[6] = system: Proteus mirabilis ATCC 25933
[7] = system: Pseudomonas aeruginosa ATCC 27853
[8] = system: Staphylococcus aureus NCTC 8325
[9] = system: Staphylococcus aureus T7/20
[10] = system: Staphylococcus epidermidis RP62A
[11] = system: Acinetobacter baumannii ATCC 19606
[12] = system: Bordetella bronchiseptica CUN 11844-99
[13] = system: Brucella abortus 9.49 (per-)
[14] = system: Escherichia coli CMCC 44102
[15] = system: Pseudomonas aeruginosa CUN 4158-02
[16] = system: Staphylococcus aureus ATCC 43300
[17] = system: Staphylococcus aureus CMCC 26003
[18] = system: Staphylococcus aureus ΔmprFpRBsyn
[19] = system: Staphylococcus aureus ΔmprF
Staphylococcus aureus = system: Staphylococcus aureus
[20] = system: Staphylococcus epidermidis ATCC 12228
Yersinia pestis KIM pYV = system: Yersinia pestis KIM pYV
Escherichia coli KF111 = system: Escherichia coli KF111
Escherichia coli KF130 = system: Escherichia coli KF130
Escherichia coli UB1005 = system: Escherichia coli UB1005
Escherichia coli = system: Escherichia coli
[21] = system: Pseudomonas aeruginosa H374
[22] = system: Pseudomonas aeruginosa H744
[23] = system: Pseudomonas aeruginosa K799
[24] = system: Salmonella enterica subsp. enterica serovar Typhimurium ATCC 14028s
[25] = system: Staphylococcus epidermidis
Bacillus megaterium Bm11 = system: Bacillus megaterium Bm11
Candida tropicalis = system: Candida tropicalis
Mammaliicoccus lentus = system: Mammaliicoccus lentus
Micrococcus luteus = system: Micrococcus luteus
[26] = system: Phytophthora nicotianae PG344
Enterococcus faecalis = system: Enterococcus faecalis
Escherichia coli W3110 = system: Escherichia coli W3110
[27] = system: Pseudomonas aeruginosa PAK
[28] = system: Streptococcus gordonii Challis DL1
[29] = system: Streptococcus mitis ATCC 903
[30] = system: Streptococcus mutans UA159
[31] = system: Streptococcus sanguinis NY101
[32] = system: Streptococcus sobrinus ATCC 33478

## CC[C@H](C)[C@H](NC(=O)CN)C(=O)N[C@@H](CCSC)C(=O)N[C@@H](CO)C(=O)N[C@@H](CC(C)C)C(=O)N[C@@H](Cc1ccccc1)C(=O)N[C@@H](CCCCN)C(=O)NCC(=O)N[C@H](C(=O)N[C@@H](CC(C)C)C(=O)N[C@@H](CCCCN)C(=O)N[C@H](C(=O)N[C@@H](C)C(=O)NCC(=O)N[C@@H](CCCCN)C(=O)N[C@@H](Cc1cnc[nH]1)C(=O)N[C@H](C(=O)N[C@@H](C)C(=O)NCC(=O)N[C@@H](CO)C(=O)N[C@@H](CC(C)C)C(=O)N[C@H](C(=O)N[C@@H](CC(=O)O)C(=O)N[C@@H](CCC(N)=O)C(=O)N[C@@H](CC(C)C)C(=O)N[C@@H](CCCCN)C(=O)N[C@H]1CSSC[C@@H](C(=O)O)NC(=O)CNC(=O)CNC(=O)[C@H]([C@@H](C)O)NC(=O)[C@H]([C@@H](C)CC)NC(=O)[C@H](CCCCN)NC1=O)C(C)C)C(C)C)[C@@H](C)O)C(C)C [GIMSLFKGVLKTAGKHVAGSLVDQLKCKITGGC]
[1]
  MIC: ≥ 100 µM
[2]
  MIC: 6 µM (≈ 20.2 µg/mL)
[3]
  MIC: 25 µM (≈ 84 µg/mL)
[4]
  MIC: 3 µM (≈ 10.1 µg/mL)
[5]
  MIC: 6 µM (≈ 20.2 µg/mL)
[6]
  MIC: ≥ 100 µM
[7]
  MIC: 6 µM (≈ 20.2 µg/mL)
[8]
  MIC: 12.5 µM (≈ 42 µg/mL)
[9]
  MIC: 25 µM (≈ 84 µg/mL)
[10]
  MIC: 12.5 µM (≈ 42 µg/mL)

## CC[C@H](C)[C@H](NC(=O)[C@H](CCCN=C(N)N)NC(=O)[C@H](CCCN=C(N)N)NC(=O)[C@H](CC(C)C)NC(=O)[C@H](Cc1ccccc1)NC(=O)[C@@H](NC(=O)[C@H](CCCN=C(N)N)NC(=O)[C@H](CCSC)NC(=O)[C@@H](NC(=O)[C@H](CCCCN)NC(=O)[C@H](CCCCN)NC(=O)[C@H](CS)NC(=O)[C@@H](NC(=O)CNC(=O)[C@H](CCCN=C(N)N)NC(=O)[C@H](CC(C)C)NC(=O)[C@@H](NC(=O)[C@@H](N)CCCCN)[C@@H](C)CC)C(C)C)[C@@H](C)CC)[C@@H](C)O)C(=O)N[C@@H](CO)C(=O)N[C@@H](CCCCN)C(=O)N[C@@H](CC(=O)O)C(=O)N[C@H](C(=O)N[C@@H](CC(C)C)C(=O)N[C@H](C(=O)NCC(=O)N[C@@H](CCCCN)C(=O)N[C@@H](CCCCN)C(N)=O)[C@@H](C)O)[C@@H](C)CC [KILRGVCKKIMRTFLRRISKDILTGKK]
[11]
  MIC: 0.624 µM (≈ 2 µg/mL)
[12]
  MIC: 1.25 µM (≈ 4 µg/mL)
[13]
  MIC: 9.99 µM (≈ 32 µg/mL)
[4]
  MIC: 5 µM (≈ 16 µg/mL)
[14]
  MIC: 4 µM (≈ 12.8 µg/mL)
[7]
  MIC: 8 µM (≈ 25.6 µg/mL)
[15]
  MIC: 9.99 µM (≈ 32 µg/mL)
[16]
  MIC: 79.9 µM (≈ 256 µg/mL)
[17]
  MIC: 2 µM (≈ 6.4 µg/mL)
[18]
  MIC: 2.5 µM (≈ 8 µg/mL)
[19]
  MIC: 2.5 µM (≈ 8 µg/mL)
Staphylococcus aureus
  MIC: 20 µM (≈ 64 µg/mL)
[20]
  MIC: 2 µM (≈ 6.4 µg/mL)
Yersinia pestis KIM pYV
  MIC: ≥ 79.9 µM

## CC[C@H](C)[C@H](NC(=O)[C@@H]1CCCN1C(=O)[C@H](CCCCN)NC(=O)[C@H](CC(C)C)NC(=O)[C@H](C)NC(=O)[C@@H](NC(=O)[C@H](Cc1cnc[nH]1)NC(=O)[C@H](Cc1ccccc1)NC(=O)[C@@H](NC(=O)[C@@H](NC(=O)[C@H](CCCN=C(N)N)NC(=O)[C@@H](NC(=O)[C@@H]1CCCN1C(=O)[C@H](CO)NC(=O)[C@H](CCCCN)NC(=O)[C@H](Cc1ccccc1)NC(=O)[C@@H](NC(=O)[C@H](CCCN=C(N)N)NC(=O)[C@H](CC(C)C)NC(=O)[C@H](Cc1ccccc1)NC(=O)[C@H](CO)NC(=O)[C@H](CCCCN)NC(=O)[C@H](Cc1c[nH]c2ccccc12)NC(=O)[C@@H](N)CCCCN)[C@@H](C)O)C(C)C)[C@@H](C)O)C(C)C)[C@@H](C)O)C(=O)N[C@@H](CO)C(=O)N[C@@H](CO)C(=O)O [KWKSFLRTFKSPVRTVFHTALKPISS]
Escherichia coli KF111
  MIC: 1.31 µM (≈ 4 µg/mL)
Escherichia coli KF130
  MIC: 1.31 µM (≈ 4 µg/mL)
Escherichia coli UB1005
  MIC: 0.653 µM (≈ 2 µg/mL)
Escherichia coli
  MIC: 0.653 µM (≈ 2 µg/mL)
[21]
  MIC: 5.22 µM (≈ 16 µg/mL)
[22]
  MIC: 5.22 µM (≈ 16 µg/mL)
[23]
  MIC: 5.22 µM (≈ 16 µg/mL)
[24]
  MIC: 2.61 µM (≈ 8 µg/mL)
Staphylococcus aureus
  MIC: > 20.9 µM
[25]
  MIC: 5.22 µM (≈ 16 µg/mL)

## CC(C)C[C@H](N)C(=O)N[C@H](C(=O)N[C@@H](CCCN=C(N)N)C(=O)NCC(=O)N[C@H]1CSSC[C@@H](C(=O)N[C@@H](Cc2ccccc2)C(=O)N[C@H](C(=O)N[C@@H](CCCN=C(N)N)C(N)=O)C(C)C)NC(=O)[C@@H]2CCCN2C(=O)[C@H](CCCCN)NC(=O)[C@@H]2CCCN2C(=O)[C@@H]2CCCN2C(=O)[C@H](Cc2ccc(O)cc2)NC(=O)[C@H](CO)NC(=O)[C@H](CCCCN)NC(=O)[C@H]([C@@H](C)O)NC(=O)[C@H](Cc2c[nH]c3ccccc23)NC1=O)C(C)C [LVRGCWTKSYPPKPCFVR]
Bacillus megaterium Bm11
  MIC: 20 µM (≈ 42.7 µg/mL)
Candida tropicalis
  MIC: 11 µM (≈ 23.5 µg/mL)
Mammaliicoccus lentus
  MIC: ≥ 50 µM
Micrococcus luteus
  MIC: 10 µM (≈ 21.3 µg/mL)
[26]
  MIC: ≥ 75 µM

## NCCCC[C@H](NC(=O)[C@H](Cc1c[nH]c2ccccc12)NC(=O)[C@@H](N)Cc1c[nH]c2ccccc12)C(=O)N[C@@H](CC(=O)O)C(=O)N[C@@H](Cc1c[nH]c2ccccc12)C(=O)N[C@@H](Cc1c[nH]c2ccccc12)C(=O)N[C@@H](CCC(=O)O)C(=O)N[C@@H](CCCN=C(N)N)C(=O)N[C@@H](Cc1c[nH]c2ccccc12)C(N)=O [WWKDWWERW]
Enterococcus faecalis
  MIC: ≥ 338 µM
Escherichia coli W3110
  MIC: ≥ 338 µM
[27]
  MIC: ≥ 338 µM
Staphylococcus aureus
  MIC: > 338 µM
[28]
  MIC: ≥ 338 µM
[29]
  MIC: ≥ 338 µM
[30]
  MIC: ≥ 338 µM
[31]
  MIC: ≥ 338 µM
[32]
  MIC: ≥ 338 µM
